Row | Compound | melting point [°C]
1 | CCC(=O)N1N=C(c2ccc([N+](=O)[O-])c(C)c2)c2cc3c(cc2CC1C)OCO3 (stereo unspecified) | 172 to 175
2 | O=C(NCCCO)c1cc(O)c(O)c([N+](=O)[O-])c1 | 160 to 163
3 | C=CCON(C)C(=O)c1nc(-c2ccc(Cl)c(OC)c2F)cc(N)c1Cl | 134 to 136
4 | CC12CCC(OC(=O)c3ccc(O)cc3)CC1=CCC1C2CCC2(C)C(=NO)CCC12 (stereo unspecified) | 177 to 182
5 | NC(=O)NCCCC(NC(=O)OCc1ccccc1)C(=O)OCc1ccc([N+](=O)[O-])cc1 (stereo unspecified) | 144 to 146
6 | CCCn1nc(SC2CCC(CC(=O)O)CC2)c(C(=O)O)c1Cc1cc2c(cc1Cl)OCO2 (stereo unspecified) | 178
7 | N#Cc1nn(-c2c(Cl)cc(C(F)(F)F)cc2Cl)cc1C1(C(F)(F)C(F)(F)F)CC1 | 105 to 106
8 | C#CCC1C(=O)NOc2cc(F)c(NC(=S)N3CCCC=N3)cc21 (stereo unspecified) | 151 to 155
9 | Fc1cc(Br)c(OCc2ccccc2)c(Br)c1 | 83
10 | Fc1ccc2[nH]c(CC3CCN(CC4CCc5ccccc5O4)CC3)cc2c1 (stereo unspecified) | 187 to 190
11 | c1ccc2c(c1)C[C@@H]1CCc3ccccc3[C@@H]1O2 (relative stereo) | 71 to 72
12 | CCOC(=O)c1nccc(C#N)c1N | 114 to 116
13 | NCCOCC(O)c1cccc2ccccc12 (stereo unspecified) | 89.5 to 92
14 | O=C(NC(O)C(F)(F)F)c1snc(Cl)c1Cl (stereo unspecified) | 90 to 93
15 | NS(=O)(=O)OCCOc1cccc(OCc2ccccc2)c1 | 107 to 109
16 | N#CC(C#N)=C1Sc2nc3ccc(C#N)cc3nc2S1 | 278 to 281
17 | Cc1cc(C(=O)NN)ccc1Br | 164 to 166
18 | CCOC(=O)C(=O)c1csc(NC(=O)Nc2ccccc2F)n1 | 219 to 225
19 | CCCCCn1c2ccc(C(=O)NC34CC5CC(CC(C5)C3)C4)cc2c2ccc(OC)cc21 | 141 to 142
20 | CC(=O)NC(CCc1ccc(C(O)CCCCCCc2ccccc2)cc1)(CO[Si](C)(C)C(C)(C)C)CO[Si](C)(C)C(C)(C)C (stereo unspecified) | 121 to 122
21 | CS(=O)(=O)Nc1cc(O)ccc1Oc1ccccc1 | 138 to 140

Row | Compound | melting point [°C]
22 | C1CCC(C2CNCCNCCNCCNCCN2)CC1 (stereo unspecified) | 67 to 69.5
23 | CCN(CC)P(N)(N)=S | 54 to 58
24 | Cc1ccc(-c2cc(C)ccc2C=CC#Cc2ccc(C(=O)O)cc2)cc1 | 71 to 73
25 | CCCN(CCC)C(=O)n1cnc(S(=O)C(C)C)n1 (stereo unspecified) | 15 to 20
26 | Nc1cnc(-c2cccc(Cl)c2Cl)c(N)n1 | 169 to 170
27 | CCCOc1nc(O)ns1 | 92
28 | O=C(Nc1ccc2ccc(Cl)nc2n1)c1ccc(Cl)cc1 | 268
29 | O[C@H]1CC[C@H](Oc2cccc3onc(OCC4CCN(CC5(O)CCOCC5)CC4)c23)C1 (relative stereo) | 147
30 | C=CCCC(O)=C(C#N)C(=O)Nc1ccc(C(F)(F)F)c(C)c1 | 133
31 | Fc1ccc(F)c(C=C2CCNc3nc(Br)ccc32)c1 | 178 to 179
32 | O=C(NNCCO)c1ccc(NCc2cc(Br)ccc2OCc2ccccc2)cc1 | 121 to 122
33 | CS(=O)(=O)c1ccc(C(=O)c2cc(-c3ccc(Cl)cc3)c(N3CCOCC3)s2)cc1 | 242 to 243
34 | COC(=O)NNC(=S)Cc1ccc(F)cc1 | 150 to 152
35 | CN(C)S(=O)(=O)c1cc(Cl)c(Cl)c(Cl)c1SCSC#N | 155 to 156
36 | CCOC(=O)C(NC(=O)c1ccc(OC)cc1)C(C)=O (stereo unspecified) | 67 to 69
37 | COc1ccc(/C(=C/C=C/C(=O)Oc2ccc([N+](=O)[O-])cc2)c2ccccc2)cc1 | 113 to 115
38 | CCCNC(=O)NNC(=O)c1ccccc1 | 172 to 174
39 | NS(=O)(=O)c1cc2ccc(O)cc2o1 | 185 to 187
40 | CCOC(=O)C1=C2CC=CC=C2N(C(=O)OCC)CCC1 | 60
41 | Cn1c2c(c3c4c(N)nc(N)nc4ccc31)CCCC2 | 288 to 292

More lines, now with the values ahead:

Row | melting point [°C] | Compound
42 | 142 | Cc1cn(C2CC(O[Si](c3ccccc3)(c3ccccc3)C(C)(C)C)C(CI)O2)c(=O)[nH]c1=O (stereo unspecified)
43 | 270 to 274 | c1ccc(Nc2nc(-c3ccncc3)nc3ccccc23)cc1
44 | 208 to 209 | CC(C)(O)[C@H]1CC[C@H](Cc2cn(-c3ccc(F)cc3)c3ncccc3c2=O)CC1
45 | 141 to 143 | Cc1c(N2CC(COC(=O)C(C)C)C(COC(=O)C(C)C)C2)c(F)cc2c(=O)c(C(=O)O)cn(C3CC3)c12 (stereo unspecified)
46 | 205 to 206 | C#CCc1c(C)nc(C)nc1NCc1ccc(-c2ccccc2-c2nnn[nH]2)cc1
47 | 53 to 54 | COc1cc(C)nc(-n2ccnc2)n1
48 | 171 to 172 | CCN(CC)CCn1nc2c3c(c(NCCN4C(=O)c5ccccc5C4=O)ccc31)Sc1cc(OC)ccc1-2
49 | 234 to 235 | c1ccc(-c2cc3nccnc3[nH]2)nc1
50 | 196 to 197 | O=C(Cn1c(-c2ccc(Cl)cc2)nc2cccnc21)N1CCC1
51 | 129 to 131 | CCOCc1nc2c(N)nc3ccccc3c2n1CCCC(=O)OCC
52 | 190 to 206 | CCc1nc2c(N)nc3ccccc3c2n1CC#Cc1ccc([N+](=O)[O-])cc1
53 | 153 to 156 | CCc1nn(C2CN(C(C)C)C2)c(C(N)=O)c1[N+](=O)[O-]
54 | 60 to 61 | CC(=O)OC1C(c2ccccc2)=C(c2ccc(S(C)(=O)=O)cc2)C1(C)C (stereo unspecified)
55 | 124 to 127 | CCN1C(=O)C(C)(C)C(=O)N(C)c2cc(CN(CCn3ccc4oc(C)cc4c3=O)Cc3cccnc3)ccc21
56 | 157 to 161 | CCOC(=O)c1cn(C2CSC2)c2nc(Cl)c(F)cc2c1=O
57 | 198 to 203 | CCOC(=O)c1cn(-c2csnn2)c2cc(F)c(F)cc2c1=O
58 | 130 to 133 | O=C(CCl)Nc1c([N+](=O)[O-])cnn1-c1c(Cl)cc(C(F)(F)F)cc1Cl
59 | 139 to 140 | CC(Cn1nccn1)n1nnc2cc3c(=O)n(C(C)Cn4ncnn4)nnc3cc2c1=O (stereo unspecified)
60 | > 300 | O=c1[nH]c2c([nH]c1=O)C(O)c1ccccc1-2 (stereo unspecified)
61 | 306 to 307 | NC1=C2C=NN=C2N(c2ccc(Cl)c(Cl)c2)CN1c1ccccc1

Row | melting point [°C] | Compound
62 | 52 to 53 | CCOC(=O)C(Cc1ccc(C)c(OC(F)(F)C(F)F)c1)C(=O)c1ccc(F)cc1 (stereo unspecified)
63 | 73 to 75 | CC(C)c1cccc(C(C)C)c1NC(=O)CN1CCCN(CCCSc2nc3ncccc3o2)CC1
64 | 173 to 175 | COc1cc(Nc2cc(-c3ccccc3)on2)ccc1-c1cnco1
65 | 74 to 75 | O=C1NCC(CCc2ccccc2Cl)O1 (stereo unspecified)
66 | 271 to 273 | FC(F)c1nc2ccccc2n1-c1nc(Nc2cccnn2)nc(N2CCOCC2)n1
67 | 279 | CCOc1ccc(C2C(C(=O)c3ccc(C(C)C)cc3)=C(O)C(=O)N2c2ccc(C)nn2)cc1 (stereo unspecified)
68 | 162 to 163 | O=c1[nH]c(=O)n(CCCCCCl)c2ccccc12
69 | 230 to 233 | COCCn1nc2c(N)nc3ncccc3c2c1CC1CCOCC1
70 | 100 to 101 | Cc1cc(I)cc2c1oc(=O)n2C
71 | 188 | COc1cc(CCCN2CCc3cc(OC)c(OC)cc3C2)ccc1NC(=O)c1cccc2c(=O)c3cccc(OC)c3[nH]c12
72 | 109 to 110 | COCCOCCOc1cccc2c1C1(COc3cc4c(cc31)OCCO4)C(=O)N2C (stereo unspecified)
73 | 131 to 133 | CCN(CC)CCN1CCN(c2ccc(N3C[C@H](CNC(C)=O)OC3=O)cc2F)CC1
74 | 112 | Cc1cc(C2=NCCc3ccccc32)n(C)n1
75 | 153 to 157 | COc1cc(CCNC(=O)[C@@H](NS(C)(=O)=O)C(C)C)ccc1OCc1cccc2ccccc12
76 | 192 to 195 | Cc1ccc2c(c1)S(=O)(=O)N=CN2C1CC1
77 | 129 to 130 | COc1ccc(C2C=C3CN(C)CCC3C3C(=O)N(C)C(=O)C23)cc1 (stereo unspecified)
78 | 182 to 185 | CCc1nc2c(N)nc3ccccc3c2n1CCCCSc1ncccn1
79 | 205 to 213 | COc1cc(OCc2ccccn2)ccc1/C=C/c1cc(/C=C/c2ccc3nccnc3c2)[nH]n1
80 | 131 to 132 | COc1cc(OC)c2cc(-c3cc(OC)c(OC)c(OC)c3)oc2c1
81 | 234 to 235 | CCCCC(CC)C(=O)Nc1ccc2ccn(Cc3ccc(C(=O)O)cc3OC)c2c1 (stereo unspecified)

Row | melting point [°C] | Compound
82 | 65 to 66 | CCOC(=O)CCCCC(=O)c1ccc2cc(OCCC(C)C)ccc2c1
83 | 225 to 227 | CCOc1cc2ncc(C#N)c(Nc3ccc4c(c3)OCCO4)c2cc1OCC
84 | 195 to 199 | CCCCNC(=O)C(C)(C)COc1cccc2nc(C)c(C(=O)O)c(N)c12
85 | 139 to 140 | Cc1cc(N(C)c2ccn(-c3ccccc3)n2)cc(C)c1O
86 | 183 to 185 | COc1ccc(C2=NNC(=O)[C@H]3CC=CC[C@@H]23)cc1Cl (relative stereo)
87 | 89 to 93 | COc1c(C)cc(C(=O)N2CCN(c3ncccc3NC(C)C)CC2)cc1C
88 | 86 to 88 | CCCCCCC1(C)Nc2ccccc2-c2c([N+](=O)[O-])cnn21 (stereo unspecified)
89 | 208 to 209 | COc1ccnc(CCc2nc3cc(-c4ccc(S(=O)(=O)N5CCN(c6ccc(C)cc6C)CC5)cc4)cnc3[nH]2)c1
90 | 142 to 144 | CC(C)c1ccc(F)c(C(C)C)c1NC(=O)CN1CCN(CCSc2nc3ccccc3o2)CC1
91 | 152 to 155 | Cc1nc2c(N)nc3ccccc3c2n1CCOCCNS(C)(=O)=O
92 | 162 to 163 | N#Cc1ccccc1-c1ccc(CNc2cc(Cl)nc3ccnn23)cc1
93 | 63 to 65 | CCc1cc(N)c([N+](=O)[O-])cc1CC
94 | 87 to 89 | Cc1nn(C)c2c(Cl)nc(C(C)C)nc12
95 | 161 to 164 | O=[N+]([O-])c1oc2cc3c(cc2c1-c1ccccc1)CCC3
96 | 193 to 194 | CCC1(CC)OC(=O)Nc2ccc(-c3cccc([N+](=O)[O-])c3)cc21
97 | 194 to 196 | CC(C)C(C)(NC(=O)c1nc2ccc(OC(F)F)cc2cc1C(=O)O)C(N)=O (stereo unspecified)
98 | 201 to 202 | Oc1cccc(-c2nc3n(n2)CCc2ccccc2-3)c1
99 | 135 | COc1cc(C(=O)/C=C/c2ccc3c(c2)OCO3)cc(OC)c1OC
100 | 250 | O=c1nc(-c2ccccn2)sc2cc(F)ccc12
101 | 225 to 227 | CCCCn1c(=O)c([N+](=O)[O-])c(NC)c2ccccc21
